Source: ChEMBL document CHEMBL1201862, “PubChem BioAssay data set” (2004)
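Growth conditions: 96-well plates. Treatment: test compound, 48 hours, 5 concentrations. Analysis: linear interpolation between bracketing concentrations; unreached endpoints set to highest concentration. The concentration for 50% growth inhibition is given as GI50.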 The source made the active and inactive calls. Rule as the data show it: active = GI50 up to about 1.1 µM and inactive = higher. Where a SMILES comes first, the peptide text is derived from it.

Tests used:
Test in all cases: growth of human tumour cells (NCI), 48 h
[1] = system: M14
[2] = system: SF-539
[3] = system: HCT-15
[4] = system: OVCAR-5
[5] = system: MDA-MB-435
[6] = system: NCI-H226
[7] = system: SNB-75
[8] = system: IGROV-1
[9] = system: RXF 393
[10] = system: OVCAR-8
[11] = system: SNB-19
[12] = system: UO-31
[13] = system: OVCAR-4
[14] = system: MDA-MB-231
[15] = system: TK-10
[16] = system: KM12
[17] = system: MDA-N
[18] = system: DU-145
[19] = system: COLO 205
[20] = system: NCI/ADR-RES
[21] = system: U-251
[22] = system: EKVX
[23] = system: OVCAR-3
[24] = system: A498
[25] = system: PC-3
[26] = system: CAKI-1
[27] = system: SN12C
[28] = system: NCI-H23
[29] = system: HT-29
[30] = system: HOP-92
[31] = system: ACHN
[32] = system: SK-MEL-5
[33] = system: SF-295
[34] = system: A549
[35] = system: HCT-116
[36] = system: SW-620
[37] = system: SF-268
[38] = system: K562
[39] = system: CCRF-CEM
[40] = system: HL-60
[41] = system: SR
[42] = system: SK-OV-3
[43] = system: Malme-3M
[44] = system: UACC-62
[45] = system: SK-MEL-2
[46] = system: HOP-62
[47] = system: UACC-257
[48] = system: LOX IMVI
[49] = system: T47D
[50] = system: 786-0
[51] = system: NCI-H522
[52] = system: MCF7
[53] = system: MOLT-4
[54] = system: SK-MEL-28
[55] = system: HCC 2998
[56] = system: RPMI-8226
[57] = system: NCI-H460

CC1(C)CC(=O)C(C(CC(c2ccccc2)c2cc3c(cc2O)OCO3)C2=C(O)CC(C)(C)CC2=O)=C(O)C1 (stereo unspecified)
GI50 [1]: > 10 µM (inactive) | GI50 [2]: > 10 µM (inactive) | GI50 [3]: > 10 µM | GI50 [4]: > 10 µM (inactive) | GI50 [5]: > 10 µM (inactive) | GI50 [6]: > 10 µM (inactive) | GI50 [7]: > 10 µM (inactive) | GI50 [8]: > 10 µM (inactive) | GI50 [9]: > 10 µM (inactive) | GI50 [10]: > 10 µM (inactive) | GI50 [11]: > 10 µM (inactive) | GI50 [12]: > 10 µM (inactive) | GI50 [13]: > 10 µM (inactive) | GI50 [14]: > 10 µM (inactive) | GI50 [15]: > 10 µM (inactive) | GI50 [16]: > 10 µM (inactive) | GI50 [17]: > 10 µM (inactive) | GI50 [18]: > 10 µM (inactive) | GI50 [19]: > 10 µM (inactive) | GI50 [20]: > 10 µM (inactive) | GI50 [21]: > 10 µM (inactive) | GI50 [22]: > 10 µM (inactive) | GI50 [23]: > 10 µM (inactive) | GI50 [24]: > 10 µM (inactive) | GI50 [25]: > 10 µM (inactive) | GI50 [26]: > 10 µM (inactive) | GI50 [27]: > 10 µM (inactive) | GI50 [28]: > 10 µM (inactive) | GI50 [29]: > 10 µM (inactive) | GI50 [30]: > 10 µM (inactive) | GI50 [31]: > 10 µM (inactive) | GI50 [32]: > 10 µM (inactive) | GI50 [33]: > 10 µM (inactive) | GI50 [34]: > 10 µM (inactive) | GI50 [35]: > 10 µM (inactive) | GI50 [36]: > 10 µM (inactive) | GI50 [37]: > 10 µM (inactive)

COC(=O)C1=CC(NC(=O)OCc2ccccc2)C(C(=O)c2ccccc2)C[C@@H]1Sc1ccccc1 (stereo partly specified)
GI50 [38]: 2.19 µM (inactive) | GI50 [39]: 1.47 µM (inactive) | GI50 [40]: 1.09 µM (active) | GI50 [41]: < 0.01 µM (active)

C=C1C(=O)O[C@@H]2C(=O)[C@@H](C)CCC/C(C)=C/CC[C@@]3(C)O[C@@H]3C[C@@H]12
GI50 [42]: > 100 µM (inactive) | GI50 [43]: 23 µM (inactive) | GI50 [1]: 54.2 µM (inactive) | GI50 [2]: 25.2 µM (inactive) | GI50 [3]: 20.2 µM | GI50 [4]: > 100 µM (inactive) | GI50 [5]: 51.3 µM (inactive) | GI50 [44]: 41.7 µM (inactive) | GI50 [6]: > 100 µM (inactive) | GI50 [7]: 0.438 µM (active) | GI50 [8]: 15.7 µM (inactive) | GI50 [9]: 3.75 µM (inactive) | GI50 [10]: 68.5 µM (inactive) | GI50 [11]: > 100 µM (inactive) | GI50 [45]: > 100 µM (inactive) | GI50 [12]: 92.7 µM (inactive) | GI50 [46]: > 100 µM (inactive) | GI50 [13]: 79.4 µM (inactive) | GI50 [47]: 56.8 µM (inactive) | GI50 [38]: 16.4 µM (inactive) | GI50 [48]: 18.9 µM (inactive) | GI50 [14]: 53.8 µM (inactive) | GI50 [49]: 87.9 µM (inactive) | GI50 [39]: 11.8 µM (inactive) | GI50 [15]: 27.7 µM (inactive) | GI50 [16]: 29.8 µM (inactive) | GI50 [17]: 34.4 µM (inactive) | GI50 [18]: 75.2 µM (inactive) | GI50 [19]: 24 µM (inactive) | GI50 [20]: 95.3 µM (inactive) | GI50 [50]: 21.3 µM (inactive) | GI50 [21]: 98.9 µM (inactive) | GI50 [22]: 37.7 µM (inactive) | GI50 [23]: 46.3 µM (inactive) | GI50 [24]: > 100 µM (inactive) | GI50 [25]: 47 µM (inactive) | GI50 [26]: 19.9 µM (inactive) | GI50 [51]: 12.1 µM (inactive) | GI50 [40]: 16.5 µM (inactive) | GI50 [27]: 40.3 µM (inactive) | GI50 [52]: 36.3 µM (inactive) | GI50 [28]: > 100 µM (inactive) | GI50 [29]: 14.3 µM (inactive) | GI50 [30]: 13.2 µM (inactive) | GI50 [31]: 36.9 µM (inactive) | GI50 [32]: 29.9 µM (inactive) | GI50 [53]: 28.6 µM (inactive) | GI50 [33]: > 100 µM (inactive) | GI50 [34]: > 100 µM (inactive) | GI50 [54]: > 100 µM (inactive) | GI50 [35]: 29.4 µM (inactive) | GI50 [55]: > 100 µM (inactive) | GI50 [36]: 20.8 µM (inactive) | GI50 [56]: 18.6 µM (inactive)

CNC(=O)CNC(=O)C(NC(=O)CNC(=O)C1CCCN1C(=O)C(C)NC(=O)C(NC(C)=O)C(C)C)C(C)C (stereo unspecified) (Ac-VAPGVG-NHMe; configuration not given here)
GI50 [42]: > 100 µM (inactive) | GI50 [43]: > 100 µM (inactive) | GI50 [1]: > 100 µM (inactive) | GI50 [2]: > 100 µM (inactive) | GI50 [3]: > 100 µM | GI50 [4]: > 100 µM (inactive) | GI50 [5]: > 100 µM (inactive) | GI50 [44]: > 100 µM (inactive) | GI50 [57]: > 100 µM (inactive) | GI50 [8]: > 100 µM (inactive) | GI50 [10]: > 100 µM (inactive) | GI50 [11]: > 100 µM (inactive) | GI50 [45]: > 100 µM (inactive) | GI50 [12]: > 100 µM (inactive) | GI50 [46]: > 100 µM (inactive) | GI50 [13]: > 100 µM (inactive) | GI50 [47]: > 100 µM (inactive) | GI50 [38]: > 100 µM (inactive) | GI50 [48]: > 100 µM (inactive) | GI50 [14]: > 100 µM (inactive) | GI50 [49]: > 100 µM (inactive) | GI50 [39]: > 100 µM (inactive) | GI50 [15]: > 100 µM (inactive) | GI50 [17]: > 100 µM (inactive) | GI50 [18]: > 100 µM (inactive) | GI50 [19]: > 100 µM (inactive) | GI50 [20]: > 100 µM (inactive) | GI50 [50]: > 100 µM (inactive) | GI50 [21]: > 100 µM (inactive) | GI50 [22]: > 100 µM (inactive) | GI50 [23]: > 100 µM (inactive) | GI50 [24]: > 100 µM (inactive) | GI50 [25]: > 100 µM (inactive) | GI50 [26]: > 100 µM (inactive) | GI50 [51]: > 100 µM (inactive) | GI50 [40]: > 100 µM (inactive) | GI50 [27]: > 100 µM (inactive) | GI50 [52]: > 100 µM (inactive) | GI50 [28]: > 100 µM (inactive) | GI50 [41]: > 100 µM (inactive) | GI50 [29]: > 100 µM (inactive) | GI50 [30]: > 100 µM (inactive) | GI50 [31]: > 100 µM (inactive) | GI50 [53]: > 100 µM (inactive) | GI50 [33]: > 100 µM (inactive) | GI50 [54]: > 100 µM (inactive) | GI50 [35]: > 100 µM (inactive) | GI50 [55]: > 100 µM (inactive) | GI50 [36]: > 100 µM (inactive) | GI50 [37]: > 100 µM (inactive) | GI50 [56]: > 100 µM (inactive)
